Read-outs that look alike come from different tables or passages of the source. Some results are limits rather than exact numbers.

Type in all cases: cell-based
Assay [1] has as its system NCI-60 human cancer cell line panel. Put plainly: NCI-60 one-dose test. Conditions: one-dose test (10 μM), NCI-60 panel. How it is done:
(§1) A number of the synthesized compounds (i.e. Tb1-Tb23) were evaluated for their activity against a variety of cancer cell lines, namely the NCI-60 human cancer cell line panel representing leukemia, melanoma, lung, colon, brain, ovary, breast, prostate and kidney types of cancer through the In Vitro Cell Line Screening Project (IVCLSP) of the National Cancer Institute (NCI), and a summary of the results is shown in Table 1. […] As there was interest in the activity in certain other cell lines, these and the remaining compounds (Tb1-Tb41, PTb-D42 and PTb-D43) were subjected to further testing against MES SA (uterine sarcoma cells), MES SA DX (multidrug resistant uterine sarcoma cells), and HEK 293T (human embryonic kidney cells). […] Tubulysins are known to be substrates for Pgp pumps (Xiangming, et al., 2013; Kaur, et al., 2006; Szakacs, et al., 2006) as supported by the observed low activities of all tubulysins tested except Tb28, Tb32 and Tb33.

For assay [2], the system named is HEK 293T (human embryonic kidney cells). Put plainly: Cytotoxic assay (CellTiter-Glo, 72 h), HEK 293T. The conditions noted are these: Homo sapiens, HEK-293T, read-out: IC50 HEK 293T.
The subject of assay [3] is MES SA (uterine sarcoma cells). Put plainly: Cytotoxic assay (CellTiter-Glo, 72 h), MES SA. The conditions noted are these: Homo sapiens, MES-SA, read-out: IC50 MES SA. On the technique in general: ATP-based viability assays read luminescence as a measure of living cells.
In assay [4] the test system is MES SA DX (multidrug resistant uterine sarcoma cells). The experiment in a line: Cytotoxic assay (CellTiter-Glo, 72 h), MES SA DX. The conditions noted are these: Homo sapiens.
Another assay has as its system melanoma cell lines. Put plainly: NCI-60 cytotoxicity, melanoma. Conditions: Homo sapiens. How it is done:
as §1

A further assay has as its system colon cancer cell lines. Put plainly: NCI-60 cytotoxicity, colon cancer. The conditions noted are these: Homo sapiens. How it is done:
as §1

A further assay has as its system breast cancer cell lines. Put plainly: NCI-60 cytotoxicity, breast cancer. The conditions noted are these: Homo sapiens. How it is done: as §1
Assay [5] relates to leukemia cancer cell lines. Put plainly: NCI-60 cytotoxicity, leukemia. Conditions: Homo sapiens. How it is done: as §1
The subject of assay [6] is prostate cancer cell lines. The experiment in a line: NCI-60 cytotoxicity, prostate cancer. The conditions noted are these: Homo sapiens. How it is done:
as §1

For the next assay, the system named is CNS cancer cell lines. Put plainly: NCI-60 cytotoxicity, CNS cancer. The conditions noted are these: Homo sapiens. How it is done:
as §1

Assay [7] deals with ovarian cancer cell lines. Put plainly: NCI-60 cytotoxicity, ovarian cancer. The conditions noted are these: Homo sapiens. The procedure:
as §1

A further assay has as its system renal cancer cell lines. The experiment in a line: NCI-60 cytotoxicity, renal cancer. The conditions noted are these: Homo sapiens. How it is done:
as §1

Assay [8] deals with non-small cell lung cancer cell lines. Put plainly: NCI-60 cytotoxicity, non-small cell lung cancer. The conditions noted are these: Homo sapiens. The procedure: as §1

As to `CCC(C)[C@H](NC(=O)c1ccccn1)C(=O)N(C)[C@H](C[C@@H](OC(C)=O)c1nc(C(=O)NC23C4C5C2C2C3C4C52C(=O)OC)cs1)C(C)C` (stereo in doubt) [Tb12, Methyl 4-(2-((1R,3R)-1-acetoxy-3-((2S,3S)—N,3-dimethyl-2-(picolinamido)pentanamido)-4-methyl-pentyl)thiazole-4-carboxamido)cubane-1-carboxylate], in [1], the “one dose, mean growth %” value was 84.90%. For the same molecule, the IC50 in [2] (72 h), in [3] (72 h) and in assay [4] was above 50 nM each time.

For the molecule `CCC(C)[C@H](NC(=O)c1ccccn1)C(=O)N(C)[C@H](C[C@@H](OC(C)=O)c1nc(C(=O)NC23CC(C(=O)OC)(C2)C3)cs1)C(C)C` (stereo in doubt) [Tb15, Methyl 3-(2-((1R,3R)-1-acetoxy-3-((2S,3S)—N,3-dimethyl-2-(picolinamido)pentanamido)-4-methyl-pentyl)thiazole-4-carboxamido)bicyclo[1.1.1]pentane-1-carboxylate], the “one dose, mean growth %” value in [1] is 94.38%. For the same molecule, the IC50 in assay [2] (72 h), in [3] (72 h) and in assay [4] was above 50 nM throughout.

As for `CCC(C)[C@H](NC(=O)CN(C)C)C(=O)N(C)[C@H](C(=O)NC12C3C4C1C1C2C3C41C(=O)N[C@@H](Cc1ccccc1)C[C@H](C)C(=O)OC)C(C)C` (stereo in doubt) [Tb18, Methyl (2S,4R)-4-(4-((S)-2-((2S,3S)-2-(2-(dimethylamino)acetamido)-N,3-dimethylpentanamido)-3-methylbutanamido)cubane-1-carboxamido)-2-methyl-5-phenylpentanoate], the “one dose, mean growth %” value in assay [1] is 98.48%. Besides, the IC50 in assay [2] (72 h), in [3] (72 h) and in assay [4] was above 50 nM in each case.

For `CCC(C)[C@H](NC(=O)[C@H]1CCCCN1C)C(=O)N(C)[C@H](C(=O)NC12CC(C(=O)N[C@@H](Cc3ccccc3)C[C@H](C)C(=O)OC)(C1)C2)C(C)C` (stereo in doubt) [Tb19, Methyl (2S,4R)-4-(3-((S)-2-((2S,3S)—N,3-dimethyl-2-((R)-1-methylpiperidine-2 carboxamido)pentan amido)-3-methylbutanamido)bicyclo[1.1.1]pentane-1-carboxamido)-2-methyl-5-phenylpentanoate], the “one dose, mean growth %” value in assay [1] came out at 100.82%. For the same molecule, the IC50 in assay [2] (72 h), in [3] (72 h) and in assay [4] was above 50 nM throughout.

Turning to `CC[C@@H](C)[C@H](NC(=O)CN(C)C)C(=O)N(C)[C@H](C[C@@H](OC(C)=O)c1nc(C(=O)NC23CC(C(=O)OC)(C2)C3)cs1)C(C)C` [Tb16], the GI50 (as a rule, the concentration that inhibits growth by half) in the assay with melanoma cell lines (NCI-60, selected value) was 46.1 nM; in the assay on colon cancer cell lines (NCI-60, selected value), 98.1 nM; with breast cancer cell lines (NCI-60, selected value) it was 123 nM; in assay [5] (NCI-60, selected value), 15.1 nM; in assay [6] (NCI-60, selected value) it was 303 nM; with CNS cancer cell lines (NCI-60, selected value), 127 nM. For the same molecule, the GI50 in assay [7] (NCI-60, selected value) came to 99.1 nM; with renal cancer cell lines (NCI-60, selected value), 186 nM; in [8] (NCI-60, selected value) it was 85 nM. Further, the IC50 in assay [2] (72 h), in assay [3] (72 h) and in assay [4] was above 50 nM throughout.

As for `CC[C@@H](C)[C@H](NC(=O)[C@H]1CCCCN1C)C(=O)N(C)[C@H](C(=O)NC12C3C4C1C1C2C3C41C(=O)N[C@@H](Cc1ccccc1)C[C@H](C)C(=O)OC)C(C)C` (stereo partly drawn) [Tb17, Methyl (2S,4R)-4-(4-((S)-2-((2S,3S)—N,3-dimethyl-2-((R)-1-methylpiperidine-2-carboxamido)penta-namido)-3-methylbutanamido)cubane-1-carboxamido)-2-methyl-5-phenylpentanoate], the “one dose, mean growth %” value in [1] turned out to be 97.37%. The IC50 in assay [2] (72 h), in [3] (72 h) and in [4] was above 50 nM each time.

As for `COC(=O)[C@@H](C)C[C@H](Cc1ccccc1)NC(=O)c1csc([C@@H](C[C@H](C(C)C)N(C)C(=O)[C@@H](NC(=O)[C@H]2CCCCN2C)C2CC2)OC(C)=O)n1` [Tb20, Methyl (2S,4R)-4-(2-((1R,3R)-1-acetoxy-3-((S)-2-cyclopropyl-N-methyl-2-((R)-1-methylpiperidine-2-carboxamido)acetamido)-4-methylpentyl)thiazole-4-carboxamido)-2-methyl-5-phenylpentanoate], the GI50 in the assay on melanoma cell lines (NCI-60) came to 0.035 nM; with melanoma cell lines (NCI-60, selected value) it was 0.035 nM; in the assay with colon cancer cell lines (NCI-60) it was 0.263 nM; with colon cancer cell lines (NCI-60, selected value), 0.263 nM; with breast cancer cell lines (NCI-60), 0.044 nM; in [5] (NCI-60), 0.098 nM. Besides, the GI50 in assay [6] (NCI-60) was found to be 0.211 nM; in [6] (NCI-60, selected value), 0.211 nM; in the assay with CNS cancer cell lines (NCI-60) it was 0.345 nM; in the assay on CNS cancer cell lines (NCI-60, selected value), 0.345 nM; in [7] (NCI-60) it was 0.049 nM; in the assay with renal cancer cell lines (NCI-60) it was 0.27 nM. Further, it took 0.247 nM to inhibit growth in [8] (NCI-60) by half (GI50). For the same molecule, the IC50 (usually the midpoint of a concentration-inhibition curve) is 0.047 nM in assay [2] (72 h); 0.047 nM in assay [2]; 0.046 nM in assay [3] (72 h); 0.046 nM in assay [3]; below 200 nM in assay [4].

As to `COC(=O)[C@@H](C)C[C@H](Cc1ccccc1)NC(=O)c1csc([C@@H](C[C@H](C(C)C)N(C)C(=O)[C@@H](NC(=O)CN(C)C)C2CC2)OC(C)=O)n1` [Tb21, Methyl (2S,4R)-4-(2-((6S,9R,11R)-6-cyclopropyl-9-isopropyl-2,8-dimethyl-4,7,13-trioxo-12-oxa-2,5,8-triazatetradecan-11-yl)thiazole-4-carboxamido)-2-methyl-5-phenylpentanoate], the GI50 in the assay on melanoma cell lines (NCI-60, selected value) stood at 2.23 nM; with colon cancer cell lines (NCI-60, selected value) it was 23.9 nM; in the assay with breast cancer cell lines (NCI-60, selected value) it was 4.04 nM; in assay [5] (NCI-60, selected value) it was 1.65 nM; in [6] (NCI-60, selected value), 34.6 nM; in the assay with CNS cancer cell lines (NCI-60, selected value) it was 24.1 nM. Besides, the GI50 turned out to be 5.79 nM in [7] (NCI-60, selected value); 23.2 nM in the assay on renal cancer cell lines (NCI-60, selected value); 6.62 nM in assay [8] (NCI-60, selected value). Besides, the IC50 is above 10 nM in assay [2] (72 h), 16.8 nM in assay [3] (72 h) and above 50 nM in assay [4].

For the molecule `COC(=O)[C@@H](C)C[C@H](Cc1ccccc1)NC(=O)c1csc([C@@H](C[C@H](C(C)C)N(C)C(=O)[C@@H](NC(=O)C23CC(NC(C)=O)(C2)C3)C2CC2)OC(C)=O)n1` [Tb22, Methyl (2S,4R)-4-(2-((1R,3R)-3-((S)-2-(3-acetamidobicyclo[1.1.1]pentane-1-carboxamido)-2-cyclopropyl-N-methylacetamido)-1-acetoxy-4-methylpentyl)thiazole-4-carboxamido)-2-methyl-5-phenylpentanoate], the “one dose, mean growth %” value in assay [1] was 49.38%. The IC50 in assay [2] (72 h), in assay [3] (72 h) and in assay [4] was above 50 nM in each case.

`CNC12C3C4C1C1C2C3C41C(=O)N[C@H](C(=O)N(C)[C@H](C[C@@H](OC(C)=O)c1nc(C(=O)N[C@@H](Cc2ccccc2)C[C@H](C)C(=O)OC)cs1)C(C)C)C1CC1` (stereo partly drawn) [Tb23, Methyl (2S,4R)-4-(2-((1R,3R)-1-acetoxy-3-((S)-2-cyclopropyl-N-methyl-2-(4-(methylamino)cubane-1-carboxamido)acetamido)-4-methylpentyl)thiazole-4-carboxamido)-2-methyl-5-phenylpentanoate]: the GI50 with melanoma cell lines (NCI-60, selected value) was 45.1 nM; in the assay on colon cancer cell lines (NCI-60, selected value), 204 nM; in the assay with breast cancer cell lines (NCI-60, selected value) it was 44.7 nM; in assay [5] (NCI-60, selected value), 16.3 nM; in [6] (NCI-60, selected value), 308 nM; with CNS cancer cell lines (NCI-60, selected value) it was 119 nM. In addition, the GI50 in [7] (NCI-60, selected value) came out at 54.9 nM; with renal cancer cell lines (NCI-60, selected value), 181 nM; in [8] (NCI-60, selected value), 84.5 nM. Also, the IC50 in assay [2] (72 h), in [3] (72 h) and in assay [4] was above 50 nM throughout.

Values taken from patent US10808007B2, “Desacetoxytubulysin H and analogs thereof” (WILLIAM MARSH RICE UNIVERSITY, priority 2015, dated 2020).
